Measurements from ChEMBL document CHEMBL5370608, “Selective and Bioavailable HDAC6 2-(Difluoromethyl)-1,3,4-oxadiazole Substrate Inhibitors and Modeling of Their Bioactivation Mechanism” (J Med Chem, 2023).
Calls of active or inactive are those of the source. The calls are words filed in the database; no cut-off is given here.

Key:
[1] = Clearance in Wistar Han rat at 0.5 mg/kg, iv measured upto 24 hrs by LC-MS/MS analysis; assay type: ADME, organism-based; conditions: in vivo
[2] = Oral bioavailability in C57/BI mouse at 10 mg/kg measured upto 24 hrs by LC-MS/MS analysis; assay type: ADME, organism-based; conditions: in vivo
[3] = molecular target: T1, Protein deacetylase HDAC6 (Mus musculus, UniProt Q9Z2V5); assay: Inhibition of HDAC6 in mouse LA-4 cells assessed as deacetylation of acetylated alpha-tubulin level incubated for 24 hrs by Western blot analysis; assay type: cell-based
T1 sequence (Q9Z2V5 whole entry): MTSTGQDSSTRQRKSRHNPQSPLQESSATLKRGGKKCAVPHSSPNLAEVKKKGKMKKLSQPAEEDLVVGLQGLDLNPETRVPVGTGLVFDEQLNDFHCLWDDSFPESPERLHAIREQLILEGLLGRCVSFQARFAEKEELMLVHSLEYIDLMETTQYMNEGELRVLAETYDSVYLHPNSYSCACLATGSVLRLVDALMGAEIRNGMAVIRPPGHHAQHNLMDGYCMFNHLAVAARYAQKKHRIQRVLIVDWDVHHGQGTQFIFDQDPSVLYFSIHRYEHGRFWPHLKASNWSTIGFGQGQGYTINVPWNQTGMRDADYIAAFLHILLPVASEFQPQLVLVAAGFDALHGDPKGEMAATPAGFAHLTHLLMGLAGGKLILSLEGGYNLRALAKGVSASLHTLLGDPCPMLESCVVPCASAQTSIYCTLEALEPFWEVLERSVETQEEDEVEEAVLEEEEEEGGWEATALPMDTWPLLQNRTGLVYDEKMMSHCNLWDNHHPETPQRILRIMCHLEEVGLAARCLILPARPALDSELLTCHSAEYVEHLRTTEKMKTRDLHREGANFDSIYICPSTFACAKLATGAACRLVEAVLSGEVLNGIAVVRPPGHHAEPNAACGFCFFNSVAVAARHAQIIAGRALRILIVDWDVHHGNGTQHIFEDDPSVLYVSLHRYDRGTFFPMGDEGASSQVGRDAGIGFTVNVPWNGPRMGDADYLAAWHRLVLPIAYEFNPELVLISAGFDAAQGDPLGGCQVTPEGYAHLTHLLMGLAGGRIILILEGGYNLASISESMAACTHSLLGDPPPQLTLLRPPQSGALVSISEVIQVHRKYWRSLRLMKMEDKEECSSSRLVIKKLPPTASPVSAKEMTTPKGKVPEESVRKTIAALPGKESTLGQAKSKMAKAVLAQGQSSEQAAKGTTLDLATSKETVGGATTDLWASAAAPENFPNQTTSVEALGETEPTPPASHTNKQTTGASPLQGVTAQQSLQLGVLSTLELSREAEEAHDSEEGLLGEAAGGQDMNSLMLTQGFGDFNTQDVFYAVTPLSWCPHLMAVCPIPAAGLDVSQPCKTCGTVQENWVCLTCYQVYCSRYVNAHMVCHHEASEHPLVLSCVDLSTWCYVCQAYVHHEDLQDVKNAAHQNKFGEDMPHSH

[4] = AUC (0 to infinity) in Wistar Han rat at 10 mg/kg, po measured upto 24 hrs by LC-MS/MS analysis; assay type: ADME, organism-based; design: dose 10 mg/kg, time < 24 hrs, route po; conditions: in vivo
[5] = Half life in Wistar Han rat at 10 mg/kg, po measured upto 24 hrs by LC-MS/MS analysis; assay type: ADME, organism-based; conditions: in vivo
[6] = Clearance in C57/BI mouse at 2 mg/kg, iv measured upto 24 hrs by LC-MS/MS analysis; assay type: ADME, organism-based; conditions: in vivo
[7] = Metabolic stability in mouse hepatocytes assessed as intrinsic clearance at 1 uM measured per 10^6 cells incubated at 2 to 60 mins by LC-MS/MS analysis; assay type: ADME, cell-based, Hepatocyte; conditions: time 2-60 min, read-out: CLH
[8] = Half life in C57/BI mouse at 10 mg/kg, po measured upto 24 hrs by LC-MS/MS analysis; assay type: ADME, organism-based; conditions: in vivo
[9] = AUC (0 to infinity) in C57/BI mouse at 10 mg/kg, po measured upto 24 hrs by LC-MS/MS analysis; assay type: ADME, organism-based; design: time < 24 hrs, dose 10 mg/kg, route po; conditions: in vivo
[10] = Metabolic stability in human hepatocytes assessed as intrinsic clearance at 1 uM measured per 10^6 cells incubated at 2 to 60 mins by LC-MS/MS analysis; assay type: ADME, cell-based, Hepatocyte; conditions: time 2-60 min, read-out: CLH
[11] = Volume of distribution at steady state in C57/BI mouse at 1 mg/kg, po or 0.5 mg/kg, iv measured upto 24 hrs by LC-MS/MS analysis; assay type: ADME, organism-based; conditions: in vivo
[12] = molecular target: GABA-A receptor; anion channel (Homo sapiens) (UniProt P14867+P47870+P18507+P28472+P48169+Q99928+Q9UN88+P34903+O00591+O14764+Q8N1C3+P18505+P78334+P47869+P31644+Q16445); assay: Inhibition of GABAA (unknown origin) at 34 uM relative to control; assay type: protein-complex assay
THP-1 = assay: Cytotoxicity against human THP-1 cells assessed as reduction in cell viability measured upto 250 uM by alamar blue staining based assay; assay type: functional
[13] = Oral bioavailability in Wistar Han rat at 1 mg/kg measured upto 24 hrs by LC-MS/MS analysis; assay type: ADME, organism-based; conditions: in vivo
[14] = molecular target: 3',5'-cyclic-AMP phosphodiesterase 4D (Homo sapiens) (UniProt Q08499); assay: Inhibition of PDE4D (unknown origin) at 64 uM relative to control
3',5'-cyclic-AMP phosphodiesterase 4D (Homo sapiens), sequence (Q08499 whole entry): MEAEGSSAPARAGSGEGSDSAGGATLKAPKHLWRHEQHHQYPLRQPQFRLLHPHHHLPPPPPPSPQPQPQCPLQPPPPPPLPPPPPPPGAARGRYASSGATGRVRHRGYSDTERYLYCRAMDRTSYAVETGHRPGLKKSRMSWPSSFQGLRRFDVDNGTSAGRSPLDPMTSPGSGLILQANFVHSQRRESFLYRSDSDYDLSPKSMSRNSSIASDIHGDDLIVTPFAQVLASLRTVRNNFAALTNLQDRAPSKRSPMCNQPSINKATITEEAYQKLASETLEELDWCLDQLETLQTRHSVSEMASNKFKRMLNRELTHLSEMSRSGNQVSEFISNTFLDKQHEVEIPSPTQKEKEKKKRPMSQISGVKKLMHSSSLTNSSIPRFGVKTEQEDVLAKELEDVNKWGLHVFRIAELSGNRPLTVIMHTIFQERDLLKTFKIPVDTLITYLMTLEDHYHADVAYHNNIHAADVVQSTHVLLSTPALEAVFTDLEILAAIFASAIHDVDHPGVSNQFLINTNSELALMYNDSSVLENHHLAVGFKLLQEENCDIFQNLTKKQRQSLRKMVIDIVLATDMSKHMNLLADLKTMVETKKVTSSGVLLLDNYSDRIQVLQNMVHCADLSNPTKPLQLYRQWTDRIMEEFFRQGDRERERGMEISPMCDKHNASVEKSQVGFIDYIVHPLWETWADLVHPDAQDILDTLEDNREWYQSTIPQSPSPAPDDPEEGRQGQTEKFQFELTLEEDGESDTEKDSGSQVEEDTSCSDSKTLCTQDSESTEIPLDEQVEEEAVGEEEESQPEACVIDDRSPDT

[15] = Half life in Wistar Han rat at 1 mg/kg, po measured upto 24 hrs by LC-MS/MS analysis; assay type: ADME, organism-based; conditions: in vivo
[16] = Clearance in C57/BI mouse at 0.5 mg/kg, iv measured upto 24 hrs by LC-MS/MS analysis; assay type: ADME, organism-based; conditions: in vivo
[17] = Oral bioavailability in C57/BI mouse at 1 mg/kg measured upto 24 hrs by LC-MS/MS analysis; assay type: ADME, organism-based; conditions: in vivo
[18] = AUC (0 to infinity) in C57/BI mouse at 1 mg/kg, po measured upto 24 hrs by LC-MS/MS analysis; assay type: ADME, organism-based; design: time < 24 hrs, dose 1 mg/kg, route po; conditions: in vivo
[19] = Half life in C57/BI mouse at 0.5 mg/kg, iv measured upto 24 hrs by LC-MS/MS analysis; assay type: ADME, organism-based; conditions: in vivo

clearance [1] [mL/min/kg] | bioavailability [2] [%] | IC50 [3] [µM] | AUC(0-inf) [4] [µM·h] | half-life [5] [h] | clearance [6] [mL/min/kg] | hepatocyte CLint at 1 µM [7] [µL/min/1e6 cells] | half-life [8] [h] | AUC(0-inf) [9] [µM·h] | hepatocyte CLint at 1 µM [10] [µL/min/1e6 cells] | Vdss [11] [L/kg] | inhibition [12] | bioavailability [13] [%] | inhibition [14] | half-life [15] [h] | clearance [16] [mL/min/kg] | bioavailability [17] [%] | AUC(0-inf) [18] [µM·h] | half-life [19] [h] | SMILES | Activity (THP-1)
180 | 12 | 0.398 | 0.05 | 2.1 | 140 | 130 | 1.7 | 0.4 | 5.1 |  |  |  |  |  |  |  |  |  | O=C(NO)c1cnc(NC2(c3ccccc3)CCC(F)(F)CC2)nc1 | 
3.2 |  | 1 |  |  |  | < 1 |  |  | < 1 | 0.9 | Active | 100 | Active | 10 | 2.4 | 110 | 21 | 4.7 | FC(F)c1nnc(-c2ccc(Cn3nnc(-c4ccccn4)n3)nc2)o1 | inactive
